From ChEMBL document CHEMBL1201862, “PubChem BioAssay data set” (2004) come the findings set out here.

For assay [1], the target named is NAD-dependent protein deacylase sirtuin-5, mitochondrial (Homo sapiens, UniProt Q9NXA8). Description: sirtuin-5 deacylation blockers, concentration series – biochemical, fluorescence imaging, cherry-pick, set 5, dose response (AID 720591).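 Note: desuccinylation of succinyl peptide AMC substrate read as fluorescence after trypsin release; potency of inhibitors that lower fluorescence and may act on trypsin instead.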
Assay [2] concerns the target T1, Streptokinase A (Streptococcus pyogenes serotype M1, UniProt P10520).
T1 sequence (P10520 whole entry): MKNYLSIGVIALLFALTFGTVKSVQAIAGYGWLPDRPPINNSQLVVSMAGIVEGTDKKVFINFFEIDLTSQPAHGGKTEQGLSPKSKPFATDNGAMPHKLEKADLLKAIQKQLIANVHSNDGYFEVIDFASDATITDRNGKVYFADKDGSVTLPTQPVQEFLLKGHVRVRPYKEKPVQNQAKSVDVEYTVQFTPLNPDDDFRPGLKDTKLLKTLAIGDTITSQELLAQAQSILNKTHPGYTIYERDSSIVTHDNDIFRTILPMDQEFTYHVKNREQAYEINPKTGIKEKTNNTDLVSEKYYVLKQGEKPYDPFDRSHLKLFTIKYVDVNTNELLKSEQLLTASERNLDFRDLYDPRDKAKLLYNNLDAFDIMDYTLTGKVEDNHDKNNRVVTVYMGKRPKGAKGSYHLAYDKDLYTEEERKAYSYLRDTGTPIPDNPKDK
Description: viability-normalized secreted streptokinase activity reduction – plasminogen activation absorbance, OD405, dose response (AID 1914).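 Note: secreted streptokinase activity via plasminogen activation per viability signal from cell pellet.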 The assay is classed as functional, Streptococcus pyogenes M1 GAS.

A short description of assay [3]: viability of HCT116 lacking mutant beta-catenin – cell-based, human colon tumor, dose response (AID 1045).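 Note: HCT116 colon tumor cells with beta catenin knocked out; cells exposed to compound for 60 hours.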 It is filed as functional.
Assay [4] is described as follows: viability of PTEN-deleted HCT116 cells – cell-based, HCT116 PTEN knockout, dose response (AID 1047).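 Note: HCT116 colon tumor cells with PTEN knocked out; cells exposed to compound for 60 hours before readout; potency for loss of cell viability measured by luminescence.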 The assay is classed as functional.
Assay [5] addresses Disintegrin and metalloproteinase domain-containing protein 17 (Homo sapiens, UniProt P78536). Description: inhibition of ADAM17 substrate cleavage – biochemical, quenched FRET substrate, counter-screen for ADAM10 exosite inhibitor project, dose response (AID 743253).
The test system of assay [6] is Streptococcus sp. 'group A'. Description: Streptococcus pyogenes SK(-)GAS viability under kanamycin – luminescence, BacTiterGlo, confirmation, counter-screen for streptokinase expression inhibitor project, dose response (AID 1900). The assay is classed as functional, organism-based.
The nature of assay [7]: Luminescence Cell-Based Dose Retest to Confirm Inhibitors of Cancer Stem Cells. [Related pubchem assays (depositor defined):AID2717, AID2721]. It is filed as functional. The following applies: Homo sapiens.
The subject of assay [8] is INS1. Description: INS-1E survival protection against cytokine death – cell-based, luminescence, retest, dose response (AID 449756).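 Note: cell death triggered by IL-1 beta plus TNF-alpha plus IFN-gamma mixture; protective hits raise ATP signal compared with cytokine alone wells.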 The assay is classed as functional. The following applies: Rattus norvegicus.
Assay [9] concerns Streptococcus. Description: GAS UMAA2166 growth inhibition – luminescence, BacTiterGlo, counter-screen for streptokinase expression inhibitor project, dose response (AID 1915).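 Note: potency for reduction of bacterial viability or growth.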 The assay is classed as functional, organism-based.
For assay [10], the system named is H9c2. The assay is described as follows: cells. The assay is classed as functional, cell-based. The following applies: Rattus norvegicus, H9c2, Myocardium.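 Note: confirmatory concentration-response retest of ultra-high-throughput screening hits for modulation of myocardial damage; cell death induced by hydrogen peroxide oxidative stress; compound pretreatment for 60 min then peroxide exposure for 2 h; potency is for protecting the cells against peroxide damage rather than for killing them.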
The subject of assay [11] is HEK293. Description: viability loss in HEK293T cells – cell-based, ATP luminescence, cherry-pick samples, cytotoxicity control, dose response (AID 687005).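 Note: cells exposed to compound for 48 hours.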 It is filed as functional. Particulars: Homo sapiens.
Assay [12] can be described thus: HEK293 Cytotoxicity Assay Measured in Cell-Based System Using Plate Reader - 7071-01_Inhibitor_Dose_CherryPick_Activity_Set2. The assay is classed as functional.
Assay [13] is described as follows: inhibitors acting on PAX2 in cells – cell-based, plate reader, dry powder samples, selectivity assay for PAX8 inhibitor project, dose response (AID 743048).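 Note: HEK293 cells carrying a WT1 promoter luciferase reporter driven by expressed Pax2; potency is for inhibition of Pax2 driven reporter signal.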 It is filed as functional.
The target of assay [14] is Paired box protein Pax-8 (Homo sapiens, UniProt Q06710). The assay is described as follows: PAX8 transcriptional activity inhibition in RMG-I – RMG-I cells, luciferase, cherry-pick, dose response (AID 687027).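 Note: luciferase reporter driven by Pax8 target thyroperoxidase promoter measured by SteadyGlo luminescence.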 It is filed as functional, cell-based.
Assay [15] can be described thus: PAX8-dependent cell viability loss – plate reader, dry powder, dose response (AID 743049). It is filed as functional, cell-based.
Assay [16] can be described thus: P. falciparum Dd2 growth inhibitors, dose response, SYBR Green, cherry-picked samples (AID 1159567). The assay is classed as functional, cell-based.
Assay [17] can be described thus: YAP1 overexpression rescue of CTGF inhibition – DLD1 cells, RT-qPCR, cherry-pick, mechanism study for YAP1 pathway inhibitor project, dose response (AID 1053127). The following applies: DLD-1. It is filed as functional, cell-based.
Assay [18] is described as follows: blockers of HIV-1 envelope-mediated cell-cell fusion – cherry-pick, dose response (AID 652057). The assay is classed as functional, cell-based.
Assay [19] in a line: toxicity to human hepatoma HepG2 cells – cell-based, cherry-picked samples, cytotoxicity control, dose response (AID 1159577). It is filed as functional.
Assay [20] can be described thus: viability loss in HEK293 cells – cell-based, plate reader, cherry-picked samples, cytotoxicity control, dose response (AID 743446). It is filed as functional.
The nature of assay [21]: blockers of bursicon-stimulated LGR2 cAMP reporter – cell-based, HEK293, CRE-luciferase reporter, cherry pick, set 2, dose response (AID 743343).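 Note: transfected cells were stimulated with diluted bursicon conditioned medium after compound addition.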 It is filed as functional.
Assay [22] can be described thus: blockade of melanocortin 4 receptor signaling – cell-based, plate reader, cherry pick, counter-screen for LGR2 antagonist project, dose response (AID 743444).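 Note: transfected HEK 293 cells stimulated with alpha-MSH peptide; potency of inhibitors of the alpha-MSH evoked signal.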 The assay is classed as functional.
The nature of assay [23]: A549 cell cytotoxicity, dose response, cytotoxicity control, plate reader, cherry-pick, antagonist series (AID 743412). It is filed as functional, cell-based.
A short description of assay [24]: toxicity toward HepG2 liver cells – cell-based, plate reader, cherry-pick, antagonist series, cytotoxicity control, dose response (AID 743416). The assay is classed as functional.
Assay [25] in a line: glucagon-like peptide-1 release potency in STC-1, concentration-response, half-maximal inhibitory concentration in the STC-1 line (AID 1117345). The assay is classed as functional, cell-based.
A short description of assay [26]: Potency on glucagon-like peptide 1 release, dose-response in NCI-H716 cell line, half maximal inhibitory concentration (AID 1117344). The assay is classed as functional, cell-based.
A short description of assay [27]: CTGF mRNA reduction in DLD1 cells – cell-based, DLD1 colon cancer, RT-qPCR, cherry-pick, dose response (AID 1053122). The following applies: Cancer cell lines. The assay is classed as functional.
The nature of assay [28]: Dd2 malaria parasite growth inhibition potency – SYBR Green, dry powder samples, dose response (AID 1159566).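 Note: potency for growth inhibition with lower SYBR green DNA signal.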 It is filed as functional, cell-based.
The nature of assay [29]: growth inhibition of PfATP4-mutant resistant parasites – NITD609-resistant line, SYBR Green, dry powder, dose response (AID 1159571).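 Note: parasites synchronized at ring stage by sorbitol before testing.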 It is filed as functional, cell-based.
The nature of assay [30]: toxicity to human HepG2 hepatoma cells – cell-based, plate reader, dry powder samples, cytotoxicity control, dose response (AID 1159569).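 Note: inhibitor potency with signal falling toward the positive control level.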 It is filed as functional.
Assay [31] in a line: growth inhibition of yeast DHODH-expressing 3D7 parasites – SYBR Green, dry powder samples, dose response (AID 1159570).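 Note: parasite growth measured after 72 hours of compound exposure.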 It is filed as functional, cell-based.
Assay [32] can be described thus: Plasmodium falciparum Dd2 Sybr green parasite growth Measured in Cell-Based and Microorganism Combination System Using Plate Reader - 2153-01_Inhibitor_Dose_DryPowder_Activity_Set3. The assay is classed as functional.
The target of assay [33] is T2, Cytochrome P450 1A2 (Homo sapiens, UniProt P05177).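 Note: PubChem cytochrome P450 panel assay, CYP1A2 panel member.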
T2 sequence (P05177 whole entry): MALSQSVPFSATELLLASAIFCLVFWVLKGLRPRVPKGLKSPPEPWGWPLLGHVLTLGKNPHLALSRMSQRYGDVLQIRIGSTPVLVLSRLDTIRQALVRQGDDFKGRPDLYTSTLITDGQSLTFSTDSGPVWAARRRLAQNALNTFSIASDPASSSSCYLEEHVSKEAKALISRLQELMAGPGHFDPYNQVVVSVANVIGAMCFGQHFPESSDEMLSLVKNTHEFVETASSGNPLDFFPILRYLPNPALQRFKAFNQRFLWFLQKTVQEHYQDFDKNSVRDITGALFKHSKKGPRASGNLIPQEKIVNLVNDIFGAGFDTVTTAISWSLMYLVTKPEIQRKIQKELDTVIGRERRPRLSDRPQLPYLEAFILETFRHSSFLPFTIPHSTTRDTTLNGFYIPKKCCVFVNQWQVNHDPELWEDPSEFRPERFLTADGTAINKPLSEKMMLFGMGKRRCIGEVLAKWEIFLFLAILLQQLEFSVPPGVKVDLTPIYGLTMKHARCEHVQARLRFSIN

For assay [34], the target named is Cytochrome P450 2C19 (Homo sapiens, UniProt P33261). The assay is described as follows: Cytochrome panel assay with activity outcomes. Panel member name: p450-cyp2c19 Compounds with AC50 equal or less than 10 uM are considered active. The following applies: read-out: AC50. It is filed as functional.
Assay [35] has as its target Cytochrome P450 2D6 (Homo sapiens, UniProt P10635).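 Note: CYP2D6 member of a cytochrome P450 panel assay.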
A short description of assay [36]: IC50 of insulin release inhibition, rat insulinoma INS-1E line, 5 mM glucose, cell-based (AID 1117331). The assay is classed as functional.

The source made the active and inactive calls.

Chain of NAD-dependent protein deacylase sirtuin-5, mitochondrial (Q9NXA8 whole entry): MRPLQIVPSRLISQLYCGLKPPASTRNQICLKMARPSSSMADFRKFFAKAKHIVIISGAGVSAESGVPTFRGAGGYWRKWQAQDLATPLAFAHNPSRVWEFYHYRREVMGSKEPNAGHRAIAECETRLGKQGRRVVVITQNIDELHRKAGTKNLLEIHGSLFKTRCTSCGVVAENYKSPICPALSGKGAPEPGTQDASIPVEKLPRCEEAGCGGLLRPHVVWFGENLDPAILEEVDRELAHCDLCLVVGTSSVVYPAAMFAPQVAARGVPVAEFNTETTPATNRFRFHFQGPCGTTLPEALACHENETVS
Chain of Cytochrome P450 2C19 (P33261 whole entry): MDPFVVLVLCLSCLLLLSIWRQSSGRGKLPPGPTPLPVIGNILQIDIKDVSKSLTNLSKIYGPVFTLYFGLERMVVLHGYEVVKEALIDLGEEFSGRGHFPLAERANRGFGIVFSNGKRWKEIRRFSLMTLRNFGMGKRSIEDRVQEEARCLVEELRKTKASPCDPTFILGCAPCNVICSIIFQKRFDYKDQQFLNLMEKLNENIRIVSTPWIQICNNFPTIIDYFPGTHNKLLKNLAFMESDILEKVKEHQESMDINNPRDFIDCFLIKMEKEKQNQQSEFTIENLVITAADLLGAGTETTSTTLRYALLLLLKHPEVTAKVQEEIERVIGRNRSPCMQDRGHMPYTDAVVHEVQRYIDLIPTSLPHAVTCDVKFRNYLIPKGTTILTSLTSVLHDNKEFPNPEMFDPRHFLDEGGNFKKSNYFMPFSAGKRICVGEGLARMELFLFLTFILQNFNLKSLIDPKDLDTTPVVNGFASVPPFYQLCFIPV
Chain of Paired box protein Pax-8 (Q06710 whole entry): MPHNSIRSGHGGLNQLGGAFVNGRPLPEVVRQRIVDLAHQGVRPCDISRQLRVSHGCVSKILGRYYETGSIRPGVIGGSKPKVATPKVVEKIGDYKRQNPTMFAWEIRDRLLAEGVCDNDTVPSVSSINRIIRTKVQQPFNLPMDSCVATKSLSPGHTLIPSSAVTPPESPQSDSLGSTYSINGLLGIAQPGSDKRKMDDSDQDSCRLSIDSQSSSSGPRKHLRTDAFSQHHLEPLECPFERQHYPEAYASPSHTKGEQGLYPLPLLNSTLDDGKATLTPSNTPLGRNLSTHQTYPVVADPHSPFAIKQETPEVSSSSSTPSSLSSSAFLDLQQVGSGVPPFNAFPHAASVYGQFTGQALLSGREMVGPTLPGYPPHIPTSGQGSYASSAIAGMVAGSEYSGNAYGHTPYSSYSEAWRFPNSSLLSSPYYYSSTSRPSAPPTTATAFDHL
Chain of Disintegrin and metalloproteinase domain-containing protein 17 (P78536 whole entry, the tested form may be a part): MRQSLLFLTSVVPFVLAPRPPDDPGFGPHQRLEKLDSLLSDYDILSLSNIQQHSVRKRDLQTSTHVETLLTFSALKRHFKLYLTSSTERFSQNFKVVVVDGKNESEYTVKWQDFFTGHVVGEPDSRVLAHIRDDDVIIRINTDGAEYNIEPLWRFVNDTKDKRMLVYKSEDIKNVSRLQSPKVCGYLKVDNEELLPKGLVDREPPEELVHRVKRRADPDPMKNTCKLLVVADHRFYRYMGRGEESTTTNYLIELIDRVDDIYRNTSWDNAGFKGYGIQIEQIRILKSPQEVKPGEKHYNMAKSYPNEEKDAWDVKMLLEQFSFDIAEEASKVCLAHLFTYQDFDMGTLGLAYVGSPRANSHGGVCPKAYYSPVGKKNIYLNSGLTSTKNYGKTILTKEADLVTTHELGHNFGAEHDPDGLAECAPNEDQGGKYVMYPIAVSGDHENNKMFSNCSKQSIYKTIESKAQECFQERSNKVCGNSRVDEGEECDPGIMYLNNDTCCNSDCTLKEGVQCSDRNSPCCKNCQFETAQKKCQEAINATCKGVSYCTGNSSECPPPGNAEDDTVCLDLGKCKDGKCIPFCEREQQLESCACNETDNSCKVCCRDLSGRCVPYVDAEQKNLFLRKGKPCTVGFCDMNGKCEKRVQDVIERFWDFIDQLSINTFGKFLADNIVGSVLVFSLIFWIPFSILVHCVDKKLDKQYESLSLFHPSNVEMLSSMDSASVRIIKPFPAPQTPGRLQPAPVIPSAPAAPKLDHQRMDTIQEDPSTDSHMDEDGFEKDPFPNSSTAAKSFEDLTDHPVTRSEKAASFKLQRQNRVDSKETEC
Chain of Cytochrome P450 2D6 (P10635 whole entry): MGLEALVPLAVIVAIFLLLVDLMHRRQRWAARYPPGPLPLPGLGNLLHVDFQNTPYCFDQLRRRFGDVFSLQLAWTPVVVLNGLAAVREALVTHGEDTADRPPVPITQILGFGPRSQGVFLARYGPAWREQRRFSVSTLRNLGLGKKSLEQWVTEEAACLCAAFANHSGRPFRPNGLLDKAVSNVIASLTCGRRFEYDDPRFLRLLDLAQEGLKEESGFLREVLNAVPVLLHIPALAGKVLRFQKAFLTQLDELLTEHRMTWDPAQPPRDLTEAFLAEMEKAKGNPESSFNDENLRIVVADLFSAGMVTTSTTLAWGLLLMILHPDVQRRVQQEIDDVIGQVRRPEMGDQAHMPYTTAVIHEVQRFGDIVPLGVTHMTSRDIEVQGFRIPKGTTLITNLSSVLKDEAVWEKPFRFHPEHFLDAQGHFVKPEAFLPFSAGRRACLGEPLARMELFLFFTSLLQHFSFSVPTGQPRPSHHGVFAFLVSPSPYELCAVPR

Regarding `COc1ccc(C(=O)NCC(=O)OCc2ccccc2F)cc1`, the AC50 in assay [1] is > 30 µM (inactive).
With `Cc1ccc(NS(=O)(=O)c2ccc(Cl)c(NC(=S)NC(=O)C3CCCCC3)c2)cc1Cl`, the half-maximal effective concentration (EC50) was 2.48 µM (active) in assay [2]; 20.8 µM (active) in assay [3]; 19.8 µM (active) in [4]; 0.756 µM (active) in assay [6]; 4.65 µM (active) in assay [9]. For the same compound, the IC50 in assay [5] was > 69.5 µM (inactive). Further, the AC50 is 3.05 µM (active) in [7] and 10.2 µM (active) in assay [8].
With `COc1ccc(S(=O)(=O)N2CCOCC2)cc1NC(=O)c1cccc2c(=O)c(C)c(-c3ccccc3)oc12`, the IC50 in [10] is > 79 µM (inactive). Also, in [1], the AC50 is > 30 µM (inactive).
As to `O=C(CN(c1ccc(F)cc1)S(=O)(=O)c1ccccc1)NC1CCCCCC1`, the AC50 in assay [11] and in assay [12] was 33.4 µM (active) throughout.
In the case of `C[C@H](CO)N1C[C@H](C)[C@H](CN(C)C(=O)Nc2ccc(-c3cccs3)cc2)OCc2cnnn2CCCC1=O`, the figures for the AC50 in assay [13], in [14] and in assay [15] were > 70 µM (inactive), < 0.26 µM (active) and 11.5 µM (active), respectively.
`CCNC(=O)c1cc2c(c(-c3cccc(-c4ccccc4F)c3)n1)[C@@H](CCO)N(C(=O)CC1CC1)C2`: the half-maximal activity concentration (AC50) in assay [16] was 5.87 µM (active); in assay [17] it was 11 µM (active).
For `COc1ccc2c3c(n(C)c2c1)[C@@H](CO)N(C(=O)C1CCOCC1)CC31CCN(Cc2cccc(F)c2)CC1`, the AC50 in [18] was 0.629 µM (active); in assay [16] it was 6.52 µM (active); in assay [19], 10.8 µM (active).
As for `C[C@H]1CCCCO[C@H](CN(C)S(=O)(=O)c2ccc(Cl)cc2)[C@@H](C)CN([C@@H](C)CO)C(=O)c2cc(NS(=O)(=O)c3cccs3)ccc2O1`, the half-maximal activity concentration (AC50) in [11] and in assay [12] was 15.6 µM (active) each time.
Take `C[C@H]1CN([C@@H](C)CO)C(=O)c2cc(NC(=O)Nc3ccc(C(F)(F)F)cc3)ccc2O[C@H]1CN(C)S(=O)(=O)c1cccs1`: the concentration at half-maximal activity (AC50) in assay [20] is 29.1 µM (active); in [21], 32.4 µM (active); in [22], 23.1 µM (active); in assay [23] it was 18 µM (active); in [24], > 52 µM (inactive).
Turning to `CN[C@@H]1[C@H](O)[C@H](NC)[C@H]2O[C@@]3(O)C(=O)C[C@@H](C)O[C@H]3O[C@@H]2[C@H]1O`, the IC50 in assay [25] and in assay [26] was > 40 µM (inactive) each time.
Regarding `COc1ccccc1NC(=O)N1CCCCN2[C@H](CO)[C@H](c3ccc(-c4cccc(C#N)c4)cc3)[C@@H]2C1`, the results for the AC50 in assay [27] and in [17] were 1.44 µM (active) and 11.6 µM (active), respectively.
`COc1ccccc1C#Cc1ccc([C@H]2[C@@H](CO)N(C(=O)C3CC3)[C@H]2C#N)cc1`: the AC50 is 0.457 µM (active) in assay [28]; 1.09 µM (active) in assay [29]; > 100 µM (inactive) in [30]; 2.22 µM (active) in [31]; 2.28 µM (active) in assay [32].
For the compound `N#C[C@@H]1[C@H](c2ccc(-c3cccc(F)c3)cc2)[C@@H](CO)N1C(=O)NC1CCCC1`, the concentration at half-maximal activity (AC50) is 0.117 µM (active) in [28]; 0.239 µM (active) in assay [29]; > 100 µM (inactive) in [30]; 13 µM (active) in [31]; 0.326 µM (active) in assay [32]; 0.483 µM (active) in assay [16].
Turning to `O=C(Nc1ccc(F)cc1)N1C[C@H]2[C@@H](c3ccccc31)[C@H](CO)N2C(=O)c1ccccc1F`, the AC50 is 4.75 µM (active) in assay [16] and > 39 µM (inactive) in assay [19].
For `CC[C@H](c1ccc(O)cc1)[C@@H](CC)c1ccc(O)cc1` [HEXESTROL], the AC50 in assay [33] was 12.6 µM (inconclusive); in assay [34] it was 3.16 µM (inconclusive); in assay [35] it was 15.8 µM (inconclusive). Moreover, the IC50 in [25] is 6.88 µM (inactive); in assay [26], > 40 µM (inactive).
For `COc1ccc(CN(CCN(C)C)c2ccccn2)cc1` [PYRILAMINE], the IC50 in [36] was 15.4 µM (inactive).
